From patent US20070249725A1, “Pharmaceutical formulations of sympathetic antagonist for the treatment of chronic muscle pain” (priority 2006, published 2007)
Structures can show the parent of a compound that is named as a salt.

Assay: Adverse events in subjects treated by trigger point injection (Example 1)
Format: in vivo, human
Experimental: A total of 326 male and female subjects, approximately 15 to 85 years old with pain of 4-72 month duration were treated with various doses of phenoxybenzamine. If a potential subject had pain that was clearly muscular and clearly not due to arthritis, nerve root compression or other extramuscular cause, the subject was considered a candidate for phenoxybenzamine hydrochloride injection. Trigger points were identified by palpation. A monopolar EMG needle was then inserted into the trigger point. Another monopolar EMG needle was inserted into a nearby nontender fibers of the same muscle. […] The treatment was repeated in up to 10-12 trigger points per treatment session. Subjects could return for up to 6 treatment sessions, depending on the extent of their pain. The initial treatment was with a dose of 25 mg of phenoxybenzamine hydrochloride in an injection volume of 2 ml. […] For 318 subjects, data were available for analysis for the doses of phenoxybenzamine hydrochloride used, efficacy and incidence of serious adverse events.
The frequencies of other adverse events occurring in the first 199 subjects treated, including the first 87 subjects treated with the 3 mg dose, are given in the table below. Results with an additional 131 subjects treated with the 3 mg dose have been similar.

[1] = 3 mg, multiple injections, N 87
[2] = 10-12.5 mg, multiple injections, N 89
[3] = 10-25 mg, single injection, N 23

CC(COc1ccccc1)N(CCCl)Cc1ccccc1 (stereo not shown) [Phenoxybenzamine Hydrochloride, phenoxybenzamine hydrochloride]
frequencies of adverse events in additional 131 subjects compared with Table 3 (3 mg dose): similar
Bruising at injection site, % of subjects [1]: (1%)
Bruising at injection site, number of subjects [1]: 1
Burning, % of subjects [1]: (0%)
Cold sensation, % of subjects [1]: (0%)
Diaphoresis, % of subjects [1]: (0%)
Diarrhea, % of subjects [1]: (0%)
Dizziness, % of subjects [1]: (3%)
Dizziness, number of subjects [1]: 3
Dry mouth, % of subjects [1]: (0%)
Dysphagia, % of subjects [1]: (0%)
Dyspnea, % of subjects [1]: (1%)
Dyspnea, number of subjects [1]: 1
Epistaxis, % of subjects [1]: (0%)
Fatigue, % of subjects [1]: (3%)
Fatigue, number of subjects [1]: 3
Fever, % of subjects [1]: (0%)
Flu syndrome, % of subjects [1]: (1%)
Flu syndrome, number of subjects [1]: 1
Hair disorder, % of subjects [1]: (1%)
Hair disorder, number of subjects [1]: 1
Headache, % of subjects [1]: (3%)
Headache, number of subjects [1]: 3
Hypesthesia, % of subjects [1]: (0%)
Injection site drainage, % of subjects [1]: (0%)
Injection site soreness, % of subjects [1]: (21%)
Injection site soreness, number of subjects [1]: 18
Injection site swelling, % of subjects [1]: 23%
Injection site swelling, number of subjects [1]: 20
Lethargy, % of subjects [1]: (1%)
Lethargy, number of subjects [1]: 1
Lightheadedness, % of subjects [1]: (0%)
Nasal disorder, % of subjects [1]: (0%)
Nausea, % of subjects [1]: (2%)
Nausea, number of subjects [1]: 2
Pain, % of subjects [1]: (5%)
Pain, number of subjects [1]: 4
Palpitations, % of subjects [1]: (0%)
Paresthesia, % of subjects [1]: (0%)
Pharyngitis, % of subjects [1]: (0%)
Pruritis, % of subjects [1]: (0%)
Rash, % of subjects [1]: 0%
Stiffness, % of subjects [1]: (1%)
Stiffness, number of subjects [1]: 1
Swelling, % of subjects [1]: (0%)
Syncope, % of subjects [1]: (0%)
Tachycardia, % of subjects [1]: (0%)
Taste disorder, % of subjects [1]: (1%)
Taste disorder, number of subjects [1]: 1
Tremor, % of subjects [1]: (1%)
Tremor, number of subjects [1]: 1
Vomiting, % of subjects [1]: (0%)
Bruising at injection site, % of subjects [2]: (11%)
Bruising at injection site, number of subjects [2]: 10
Burning, % of subjects [2]: (3%)
Burning, number of subjects [2]: 3
Cold sensation, % of subjects [2]: (1%)
Cold sensation, number of subjects [2]: 1
Diaphoresis, % of subjects [2]: (1%)
Diaphoresis, number of subjects [2]: 1
Diarrhea, % of subjects [2]: (2%)
Diarrhea, number of subjects [2]: 2
Dizziness, % of subjects [2]: (20%)
Dizziness, number of subjects [2]: 18
Dry mouth, % of subjects [2]: (1%)
Dry mouth, number of subjects [2]: 1
Dysphagia, % of subjects [2]: (0%)
Dyspnea, % of subjects [2]: (3%)
Dyspnea, number of subjects [2]: 3
Epistaxis, % of subjects [2]: (0%)
Fatigue, % of subjects [2]: (4%)
Fatigue, number of subjects [2]: 4
Fever, % of subjects [2]: (1%)
Fever, number of subjects [2]: 1
Flu syndrome, % of subjects [2]: (1%)
Flu syndrome, number of subjects [2]: 1
Hair disorder, % of subjects [2]: (0%)
Headache, % of subjects [2]: (10%)
Headache, number of subjects [2]: 9
Hypesthesia, % of subjects [2]: (4%)
Hypesthesia, number of subjects [2]: 4
Injection site drainage, % of subjects [2]: (2%)
Injection site drainage, number of subjects [2]: 2
Injection site soreness, % of subjects [2]: (37%)
Injection site soreness, number of subjects [2]: 33
Injection site swelling, % of subjects [2]: 45%
Injection site swelling, number of subjects [2]: 40
Lethargy, % of subjects [2]: (0%)
Lightheadedness, % of subjects [2]: (13%)
Lightheadedness, number of subjects [2]: 12
Nasal disorder, % of subjects [2]: (2%)
Nasal disorder, number of subjects [2]: 2
Nausea, % of subjects [2]: (18%)
Nausea, number of subjects [2]: 16
Pain, % of subjects [2]: (0%)
Palpitations, % of subjects [2]: (1%)
Palpitations, number of subjects [2]: 1
Paresthesia, % of subjects [2]: (3%)
Paresthesia, number of subjects [2]: 3
Pharyngitis, % of subjects [2]: (1%)
Pharyngitis, number of subjects [2]: 1
Pruritis, % of subjects [2]: (1%)
Pruritis, number of subjects [2]: 1
Rash, % of subjects [2]: 2%
Rash, number of subjects [2]: 2
Stiffness, % of subjects [2]: (2%)
Stiffness, number of subjects [2]: 2
Swelling, % of subjects [2]: (2%)
Swelling, number of subjects [2]: 2
Syncope, % of subjects [2]: (7%)
Syncope, number of subjects [2]: 6
Tachycardia, % of subjects [2]: (0%)
Taste disorder, % of subjects [2]: (2%)
Taste disorder, number of subjects [2]: 2
Tremor, % of subjects [2]: (1%)
Tremor, number of subjects [2]: 1
Vomiting, % of subjects [2]: (8%)
Vomiting, number of subjects [2]: 7
Bruising at injection site, % of subjects [3]: (0%)
Burning, % of subjects [3]: (4%)
Burning, number of subjects [3]: 1
Cold sensation, % of subjects [3]: (4%)
Cold sensation, number of subjects [3]: 1
Diaphoresis, % of subjects [3]: (0%)
Diarrhea, % of subjects [3]: (0%)
Dizziness, % of subjects [3]: (0%)
Dry mouth, % of subjects [3]: (0%)
Dysphagia, % of subjects [3]: (4%)
Dysphagia, number of subjects [3]: 1
Dyspnea, % of subjects [3]: (0%)
Epistaxis, % of subjects [3]: (4%)
Epistaxis, number of subjects [3]: 1
Fatigue, % of subjects [3]: (4%)
Fatigue, number of subjects [3]: 1
Fever, % of subjects [3]: (0%)
Flu syndrome, % of subjects [3]: (0%)
Hair disorder, % of subjects [3]: (0%)
Headache, % of subjects [3]: (0%)
Hypesthesia, % of subjects [3]: (9%)
Hypesthesia, number of subjects [3]: 2
Injection site drainage, % of subjects [3]: (0%)
Injection site soreness, % of subjects [3]: (35%)
Injection site soreness, number of subjects [3]: 8
Injection site swelling, % of subjects [3]: 26%
Injection site swelling, number of subjects [3]: 6
Lethargy, % of subjects [3]: (0%)
Lightheadedness, % of subjects [3]: (4%)
Lightheadedness, number of subjects [3]: 1
Nasal disorder, % of subjects [3]: (9%)
Nasal disorder, number of subjects [3]: 2
Nausea, % of subjects [3]: (0%)
Pain, % of subjects [3]: (26%)
Pain, number of subjects [3]: 6
Palpitations, % of subjects [3]: (0%)
Paresthesia, % of subjects [3]: (0%)
Pharyngitis, % of subjects [3]: (0%)
Pruritis, % of subjects [3]: (0%)
Rash, % of subjects [3]: 4%
Rash, number of subjects [3]: 1
Stiffness, % of subjects [3]: (13%)
Stiffness, number of subjects [3]: 3
Swelling, % of subjects [3]: (0%)
Syncope, % of subjects [3]: (0%)
Tachycardia, % of subjects [3]: (4%)
Tachycardia, number of subjects [3]: 1
Taste disorder, % of subjects [3]: (4%)
Taste disorder, number of subjects [3]: 1
Tremor, % of subjects [3]: (0%)
Vomiting, % of subjects [3]: (0%)
Bruising at injection site, % of subjects (Total of all doses, N 199): (6%)
Bruising at injection site, number of subjects (Total of all doses, N 199): 11
Burning, % of subjects (Total of all doses, N 199): (2%)
Burning, number of subjects (Total of all doses, N 199): 4
Cold sensation, % of subjects (Total of all doses, N 199): (1%)
Cold sensation, number of subjects (Total of all doses, N 199): 2
Diaphoresis, % of subjects (Total of all doses, N 199): (0%)
Diaphoresis, number of subjects (Total of all doses, N 199): 1
Diarrhea, % of subjects (Total of all doses, N 199): (1%)
Diarrhea, number of subjects (Total of all doses, N 199): 2
Dizziness, % of subjects (Total of all doses, N 199): (11%)
Dizziness, number of subjects (Total of all doses, N 199): 21
Dry mouth, % of subjects (Total of all doses, N 199): (0%)
Dry mouth, number of subjects (Total of all doses, N 199): 1
Dysphagia, % of subjects (Total of all doses, N 199): (0%)
Dysphagia, number of subjects (Total of all doses, N 199): 1
Dyspnea, % of subjects (Total of all doses, N 199): (2%)
Dyspnea, number of subjects (Total of all doses, N 199): 4
Epistaxis, % of subjects (Total of all doses, N 199): (0%)
Epistaxis, number of subjects (Total of all doses, N 199): 1
Fatigue, % of subjects (Total of all doses, N 199): (4%)
Fatigue, number of subjects (Total of all doses, N 199): 8
Fever, % of subjects (Total of all doses, N 199): (0%)
Fever, number of subjects (Total of all doses, N 199): 1
Flu syndrome, % of subjects (Total of all doses, N 199): (1%)
Flu syndrome, number of subjects (Total of all doses, N 199): 2
Hair disorder, % of subjects (Total of all doses, N 199): (0%)
Hair disorder, number of subjects (Total of all doses, N 199): 1
Headache, % of subjects (Total of all doses, N 199): (6%)
Headache, number of subjects (Total of all doses, N 199): 12
Hypesthesia, % of subjects (Total of all doses, N 199): (3%)
Hypesthesia, number of subjects (Total of all doses, N 199): 6
Injection site drainage, % of subjects (Total of all doses, N 199): (1%)
Injection site drainage, number of subjects (Total of all doses, N 199): 2
Injection site soreness, % of subjects (Total of all doses, N 199): (30%)
Injection site soreness, number of subjects (Total of all doses, N 199): 59
Injection site swelling, % of subjects (Total of all doses, N 199): 33%
Injection site swelling, number of subjects (Total of all doses, N 199): 66
Lethargy, % of subjects (Total of all doses, N 199): (0%)
Lethargy, number of subjects (Total of all doses, N 199): 1
Lightheadedness, % of subjects (Total of all doses, N 199): (7%)
Lightheadedness, number of subjects (Total of all doses, N 199): 13
Nasal disorder, % of subjects (Total of all doses, N 199): (2%)
Nasal disorder, number of subjects (Total of all doses, N 199): 4
Nausea, % of subjects (Total of all doses, N 199): (9%)
Nausea, number of subjects (Total of all doses, N 199): 18
Pain, % of subjects (Total of all doses, N 199): (5%)
Pain, number of subjects (Total of all doses, N 199): 10
Palpitations, % of subjects (Total of all doses, N 199): (0%)
Palpitations, number of subjects (Total of all doses, N 199): 1
Paresthesia, % of subjects (Total of all doses, N 199): (2%)
Paresthesia, number of subjects (Total of all doses, N 199): 3
Pharyngitis, % of subjects (Total of all doses, N 199): (0%)
Pharyngitis, number of subjects (Total of all doses, N 199): 1
Pruritis, % of subjects (Total of all doses, N 199): (0%)
Pruritis, number of subjects (Total of all doses, N 199): 1
Rash, % of subjects (Total of all doses, N 199): 2%
Rash, number of subjects (Total of all doses, N 199): 3
Stiffness, % of subjects (Total of all doses, N 199): (3%)
Stiffness, number of subjects (Total of all doses, N 199): 6
Swelling, % of subjects (Total of all doses, N 199): (1%)
Swelling, number of subjects (Total of all doses, N 199): 2
Syncope, % of subjects (Total of all doses, N 199): (3%)
Syncope, number of subjects (Total of all doses, N 199): 6
Tachycardia, % of subjects (Total of all doses, N 199): (0%)
Tachycardia, number of subjects (Total of all doses, N 199): 1
Taste disorder, % of subjects (Total of all doses, N 199): (2%)
Taste disorder, number of subjects (Total of all doses, N 199): 4
Tremor, % of subjects (Total of all doses, N 199): (1%)
Tremor, number of subjects (Total of all doses, N 199): 2
Vomiting, % of subjects (Total of all doses, N 199): (4%)
Vomiting, number of subjects (Total of all doses, N 199): 7
